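Protocol summary: plate cells (96-well), add compound at 5 concentrations, incubate 48 h, interpolate endpoints linearly. Abbreviation: GI50, concentration required for 50% inhibition of growth.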 Activity calls are given as the source filed them. No stated cut-off is given here; in the data, active = GI50 up to about 1.1 µM and inactive = higher.
Assays:
Assay in all cases: NCI anticancer screen, dose series, 48 h
[1] = system: M19-MEL
[2] = system: DMS-273
[3] = system: DLD-1
[4] = system: MDA-MB-435
[5] = system: PC-3
[6] = system: SR
[7] = system: SNB-78
[8] = system: 786-0
[9] = system: RXF 631

Measured: GI50

CCCC[S+]([O-])CC(CO)NC(=O)/C=C/c1c(C)[nH]c(=O)[nH]c1=O (configuration not stated)
inactive: [1] 2.22 µM | [2] 9.75 µM | [3] 12.1 µM

O=Nn1c2ccccc2c2cc([N+](=O)[O-])ccc21
inactive: [4] 17.1 µM | [5] 18.4 µM

CNC(=O)OC(C)CN1c2ccccc2Sc2ccc(Cl)cc21 (configuration not stated)
inactive: [4] > 10 µM | [5] > 10 µM | [6] > 10 µM

CC1(C)OCC(CO)(CO)CO1
inactive: [4] > 100 µM | [5] > 100 µM | [6] > 100 µM

S=c1sc2c(s1)SC(c1ccccc1)CS2 (configuration not stated)
inactive: [1] > 100 µM | [7] > 100 µM | [2] > 100 µM | [3] > 100 µM

CNC(=O)OCC1=C(COC(=O)NC)CN(c2ccc(OC)cc2)C1
inactive: [8] > 100 µM | [4] > 100 µM | [5] > 100 µM | [6] > 100 µM

CC1(C)N=C(c2ccccc2)SC12S[C@@H]1CCCC[C@H]1S2
inactive: [4] > 100 µM | [5] > 100 µM

Oc1nc2ccccc2c2oc3ccccc3c12
inactive: [4] > 100 µM | [5] > 100 µM | [6] > 100 µM

COc1cc(/N=N\c2cccc(S(=O)(=O)O)c2)ccc1/N=N\c1ccc(/C=C/c2ccc(-n3on3-c3ccc(/C=C/c4ccc(/N=N/c5ccc(/N=N\c6cccc(S(=O)(=O)O)c6)cc5OC)cc4S(=O)(=O)O)c(S(=O)(=O)O)c3)cc2S(=O)(=O)O)c(S(=O)(=O)O)c1
inactive: [1] > 100 µM | [7] > 100 µM | [2] > 69.5 µM | [3] > 100 µM

C=CCCC(On1c(-c2ccc(Cl)cc2)csc1=S)c1ccccc1 (configuration not stated)
inactive: [8] 32.6 µM | [4] 4.56 µM | [5] 27.3 µM

COc1ccc([C@H]2c3cc4c(cc3OC(O)(CO)[C@H]2C(=O)O)OCO4)c(OC)c1.COc1ccc([C@H]2c3cc4c(cc3OC3(O)COC(=O)[C@@H]23)OCO4)c(OC)c1 (some centres not stated)
inactive: [1] 61.7 µM | [6] 56 µM | [7] > 100 µM | [2] > 100 µM | [3] 91.8 µM

O=C(Nc1cccc([N+](=O)[O-])c1)C(=O)C(C(=O)c1ccccc1F)C1OC(=O)C2C=CC=CC21 (configuration not stated)
inactive: [1] 31.6 µM | [6] 7.06 µM | [7] 36.6 µM | [2] 31.7 µM | [3] 43.4 µM

COS(=O)c1cc(Cl)cc(Cl)c1O (configuration not stated)
inactive: [1] > 100 µM | [6] > 100 µM | [3] > 100 µM

COc1ccc(/C(Cl)=C(\CN(C)C)c2ccc(OC)c(OC)c2)cc1OC
inactive: [1] > 100 µM | [7] > 100 µM | [2] > 100 µM

N/C(=N\O)N/N=C\c1ccc(O)c(O)c1O
inactive: [1] 20.1 µM | [7] > 51.3 µM | [2] 13.6 µM | [3] 23.8 µM

CSc1nc(NC2OCC(OC(C)=O)C(OC(C)=O)C2OC(C)=O)c(/N=C(\C)C(C)=O)c(=O)[nH]1 (configuration not stated)
inactive: [6] > 100 µM | [7] > 100 µM | [2] > 100 µM | [3] > 100 µM

COC(=O)C(C)NP(=O)(N1CC1)N1CC1 (configuration not stated)
inactive: [9] > 100 µM | [7] > 100 µM | [2] 91 µM | [3] > 100 µM

CCOC(=O)C(O)(NC(=O)c1ccccc1F)C(F)(F)F (configuration not stated)
inactive: [4] > 100 µM | [5] > 100 µM | [6] > 100 µM

CCOC(=O)Cc1cnc(NC(NC(=O)CC)(C(F)(F)F)C(F)(F)F)s1
inactive: [4] > 100 µM | [6] > 100 µM

COc1cc(C2c3cc4c(cc3[C@@H](Nc3ccc(Oc5ccccc5)cc3)C3COC(=O)[C@H]23)OCO4)cc(OC)c1O (some centres not stated)
inactive: [1] 4.36 µM | [7] > 61 µM | [3] 3.95 µM
